These results are taken from patent EP4537815A1, “COMPOSITION COMPRISING A LASSO PEPTIDE […] A PHARMACEUTICALLY ACCEPTABLE NANOEMULSION” (priority 2023, dated 2025).

“Also recorded” adds a separate entry of the source. Where a SMILES comes first, the peptide text is derived from it. Bridges are numbered along the chain shown (N, C = ends).

Test [1] deals with E. faecalis V583, E. faecium Bi21, E. faecium Bi22. The test can be described thus: In vitro bacterial growth in the presence of the lasso peptide alone. The format is cell-based, Enterococcus. The protocol: (§1) An evaluation of bacterial growth was performed in vitro to assess the bacterial response to either vancomycin or bacitracin, in the absence or in the presence of either sviceucin or siamycin I.
(§2) Each strain was cultured at 37 °C in M17 medium (Terzaghi and Sandine 1975) supplemented with 0.5 % (weight/volume) glucose (GM17 medium). Overnight cultures are grown in GM17 broth and are used to inoculate the cultures for MIC measurement.
(§3) Lyophilized lasso peptides were solubilized first at 800 µM in a 1:1 solution of sterilized pure water and methanol. This stock is used for subsequent dilutions in GM17.
The lasso peptides (either siamycin I or sviceucin) were added for the relevant conditions at a final concentration of 10 µM, 5 µM or 2.5 µM. Bacterial strains from overnight cultures were added with an inoculum of 5 x 10^5 CFU/mL. The MIC corresponds to the lowest concentration in the wells where no growth is observed.

In test [2] the test system is bacitracin resistant Gram-positive bacteria belonging to the Enterococcus genus. The test can be described thus: Bacitracin MIC by microdilution (CLSI) in GM17, with or without lasso peptide. It is filed as cell-based. The method, then:
as §1, §2, §3
(§4) The measurement of the minimal inhibitory concentration (MIC) of antibiotic (either vancomycin or bacitracin) was determined by the microdilution method in accordance with the guidelines of the Clinical and Laboratory Standards Institute (CLSI 2012), with GM17 medium used as a growth medium. Subsequent 2-fold serial dilutions of the antibiotic (either vancomycin or bacitracin) were performed to obtain concentrations ranging from 0.5 to 512 µg/mL.
(§5) The lasso peptides (either siamycin I or sviceucin) were added for the relevant conditions at a final concentration of 10 µM, 5 µM or 2.5 µM. Bacterial strains from overnight cultures were added with an inoculum of 5 x 10^5 CFU/mL. The MIC corresponds to the lowest concentration in the wells where no growth is observed. […]
A general note: Broth dilution looks for growth in wells or tubes with falling amounts of substance.

The subject of test [3] is E. faecalis V583 (exhibiting VanB resistance). Nature of the test: Vancomycin MIC by microdilution (CLSI) in GM17, VanB-resistant strain, with or without lasso peptide. It is filed as cell-based. The note with it: VanB-type. The protocol:
as §1, §2, §3, §4, §5

Test [4] relates to E. faecium Bi21 (exhibiting VanA resistance), E. faecium Bi22 (exhibiting VanA resistance). The test can be described thus: Vancomycin MIC by microdilution (CLSI) in GM17, VanA-resistant strains, with or without lasso peptide. It is filed as cell-based. The protocol:
as §1, §2, §3, §4, §5

As for `CC[C@H](C)[C@@H]1NC(=O)[C@H](C)NC(=O)[C@H](Cc2ccc(O)cc2)NC(=O)CNC(=O)[C@@H]2CSSC[C@@H]3NC(=O)C[C@H](NC(=O)[C@H](CC(N)=O)NC(=O)[C@H](CSSC[C@@H](C(=O)N[C@@H](Cc4ccccc4)C(=O)N[C@@H](Cc4c[nH]c5ccccc45)C(=O)O)NC(=O)[C@H](C(C)C)NC1=O)NC(=O)[C@H](CO)NC(=O)CNC(=O)[C@H](C(C)C)NC(=O)CNC(=O)[C@H](CC(C)C)NC3=O)C(=O)N[C@@H](Cc1ccccc1)C(=O)N[C@@H](C)C(=O)NCC(=O)N2` [Siamycin I, siamycin I] (CLGVGSCNDFAGCGYAIVCFW-OH; disulfide 1-13, 7-19 (inferred); lactam N-9 (inferred); C-terminus assumed), the “Growth in the presence of the lasso peptide alone” value in test [1] (lasso peptide at 2.5 µM) is “Growth slowed down but not inhibited”; in test [1] (lasso peptide at 5 µM), “exhibits a growth inhibition activity; also recorded: Growth inhibited”. Moreover, the “effect on bacitracin resistance” value in test [2] (lasso peptide at 2.5 µM combined with bacitracin) was “reverses bacitracin resistance”. The “effect on vancomycin resistance” value is “reverses vancomycin resistance” in test [3] (lasso peptide at 2.5 µM combined with vancomycin) and “reverses vancomycin resistance” in test [4] (lasso peptide at 2.5 µM combined with vancomycin, VanA-type). Also, in test [4] (in the presence of the lasso peptide at 5 µM), the “Vancomycin MIC (VanA-resistant strains)” value was found to be 0 µg/mL.
Regarding `CC[C@H](C)[C@@H]1NC(=O)[C@H](Cc2c[nH]c3ccccc23)NC(=O)[C@H](C)NC(=O)[C@H]([C@@H](C)O)NC(=O)CNC(=O)[C@@H]2CSSC[C@@H]3NC(=O)C[C@H](NC(=O)[C@H]([C@@H](C)O)NC(=O)[C@H](CSSC[C@@H](C(=O)N[C@H](C(=O)O)C(C)C)NC1=O)NC(=O)[C@H](CC(=O)O)NC(=O)CNC(=O)CNC(=O)[C@H](Cc1c[nH]c4ccccc14)NC(=O)[C@H](C(C)C)NC3=O)C(=O)N[C@@H](Cc1ccccc1)C(=O)N[C@@H](CC(C)C)C(=O)NCC(=O)N2` [Sviceucin, sviceucin] (CVWGGDCTDFLGCGTAWICV-OH; disulfide 1-13, 7-19 (inferred); lactam N-9 (inferred); C-terminus assumed), the “effect on bacitracin resistance” value in test [2] (lasso peptide at 10 µM combined with bacitracin) is reported as “reverses bacitracin resistance”. Further, in test [3] (lasso peptide at 10 µM combined with vancomycin), the “effect on vancomycin resistance” value is listed as “reverses vancomycin resistance”.
